In this experiment the test system is CEM cells HIV-1 protection, formazan growth assay. Nature of the experiment: NCI AIDS Antiviral Assay. The conditions noted are these: for pIC50: measured here: growth of uninfected CEM cells. The procedure, abridged:
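Human CEM cells, uninfected and HIV-1-infected, exposed to five drug concentrations; growth measured by soluble formazan assay and scored as percent protection from infection, with protecting compounds retested.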

Drawing on PubChem BioAssay AID179 (DTP/NCI, 2004), this text covers EC50, IC50 and outcome for 68 compounds.

pEC50, pIC50: −log10 of the molar value. “And” between values parts separate entries of the source, which are not always exact repeats. Equal values may be shown once. The source made the active and inactive calls.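 Rule for the calls: active = compounds giving half or more protection of infected cells from virus-caused growth loss, again on retest; inactive = the rest.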 Where a SMILES comes first, the peptide text is derived from it. The star is where a group is joined. ONb = O=[N+]([O-])c1ccc(CO*)cc1; Boc = CC(C)(C)OC(=O)*

Consider `CCOC(=O)C/C(C)=N\NS(=O)(=O)c1ccc(N)cc1`, for which the pEC50 is less than 3.38 and the pIC50 is less than 3.38. Take `O=C(CCc1cc(-c2ccccc2)n[nH]1)Nc1ccccc1[N+](=O)[O-]`: the result was inactive.

On to `CSC1(Cc2ccccn2)C(=O)Nc2cccc([N+](=O)[O-])c21` (configuration not stated), for which the pEC50 is less than 3.70 and the pIC50 was 4.50.

On to `COc1c(Cl)cc(C(=CCCCCN(C(=O)C=C(c2cc(Cl)c(OC)c(C(=O)O)c2)c2cc(Cl)c(OC)c(C(=O)O)c2)[C@H]2CC[C@@]3(C)[C@@H](CC[C@@H]4[C@@H]3CC[C@]3(C)[C@@H](C(C)CCCC(C)C)CC[C@@H]43)C2)c2cc(Cl)c(OC)c(C(=O)O)c2)cc1C(=O)O` (some centres not stated), for which the pEC50 was 4.89 and the pIC50 is 4.09. Consider `COc1ccc(-c2cc(=O)c3c(O)cc(O)cc3o2)cc1OC`, for which the pEC50 was less than 4.15 and the negative-log IC50 (pIC50) was less than 4.15. With `Cc1nc(-c2nc(C)c(C(=O)/C=C/c3ccc([N+](=O)[O-])cc3)s2)sc1C(=O)/C=C/c1ccc([N+](=O)[O-])cc1`, the pEC50 was less than 4.32 and the pIC50 was less than 4.32. Take `CN(C)c1ccc(S(=O)Nc2ccccc2)cc1` (configuration not stated): the pEC50 was less than 3.70 and the pIC50 is 4.07. Turning to `CC1=NOC/C1=N\Nc1ccc(C(C)=NC2C3CC4CC(C3)CC2C4)cc1` (configuration not stated), the pEC50 is less than 4.56 and the pIC50 was less than 4.56.

`Cc1ccc2nc(CN(CCO)CCO)cc(=O)n2c1`: the pEC50 was less than 3.70 and the pIC50 was less than 3.70. `Cn1c(=O)c2nc3sc4ccccc4c(=N)n3c2n(C)c1=O`: the pEC50 is less than 4.38 and the pIC50 is less than 4.38. Regarding `COc1ccc(-n2sc3ncc([N+](=O)[O-])cc3c2=O)cc1`, the negative-log EC50 (pEC50) is 5.03 and the negative logarithm of the IC50 (pIC50) is less than 3.70.

Consider `O=c1[nH]c2ccc([N+](=O)[O-])cc2nc1/C=C(\O)c1ccccc1`, for which the pEC50 was less than 3.70 and the pIC50 is less than 3.70.

Consider `CC(C)CC(NC(=O)OC(C)(C)C)C(=O)NC(CCC(=O)OCc1ccc([N+](=O)[O-])cc1)C(=O)OCc1ccc([N+](=O)[O-])cc1` (stereo not drawn) (Boc-Leu-Glu(ONb)-ONb; configuration not given here), for which the pEC50 was less than 3.70 and the pIC50 was 4.97. For the compound `CC(C)(C)C1CCC2c3c([nH]c4ccccc34)C3C(=O)N(c4ccc(C(=O)O)cc4)C(=O)C3C2C1` (configuration not stated), the pEC50 is less than 3.70 and the pIC50 was 4.84. `CCn1c(-c2ccccc2)cs/c1=N\C(P(=O)(O)O)P(=O)(O)O`: the pEC50 is less than 3.70 and the pIC50 is less than 3.70.

With `Cc1cc(N(CCC#N)CCC#N)ccc1N=Nc1ccc(S(N)(=O)=O)cc1`, the pEC50 was less than 3.77 and the pIC50 was less than 3.77.

In the case of `O=C(NNC(=O)c1ccccc1O)c1cccs1`, the pEC50 was less than 3.70 and the pIC50 was 4.79. For `CCOC(=O)C1=C(C)C(C(=O)OC)/C(=C/c2cccc3cccnc23)C1=O` (configuration not stated) the same measures were less than 3.70 and 4.97.

For `CCCCOC(=O)CSSCC(=O)OCCCC`, the pEC50 was less than 3.70 and the pIC50 is 4.29. Regarding `Cc1ccccc1Nc1cn(COCc2ccccc2)c(=O)[nH]c1=O`, the pEC50 is less than 3.70 and the negative-log IC50 (pIC50) was 4.37. Take `Cn1ccc(C(=O)NCCN(CCNC(=O)c2ccn(C)c(=O)c2O)CCNC(=O)c2ccn(C)c(=O)c2O)c(O)c1=O`: the pEC50 is less than 3.70 and the negative-log IC50 (pIC50) was less than 3.70. Consider `COc1ccc(CN=CN/C(C#N)=C(\N)C#N)cc1OC`, for which the pEC50 was less than 3.70 and the pIC50 is less than 3.70. For the compound `Cc1cc(NS(=O)(=O)c2ccc(NO)cc2)no1`, the pEC50 is less than 4.15 and the negative-log IC50 (pIC50) is 4.80. Consider `CSc1ccc(/C=C/c2ccnc3ccccc23)cc1`, for which the pEC50 was less than 4.87 and the pIC50 was less than 4.87.

As for `CCOC(=O)C(Cl)(NC(=O)c1ccc(F)cc1)C(F)(F)F` (configuration not stated), the pEC50 is less than 3.70 and the pIC50 is less than 3.70. `Cc1ccc(/C=C2\CCCC\C2=N\O)cc1`: the result was inactive. Turning to `CC1(C)CNC(=O)C2(CCCO2)CNC(C)(C)CNC(=O)C2(CCCO2)CN1` (configuration not stated), the pEC50 is less than 3.90 and the pIC50 is less than 3.90. On to `COC1/C=C/OC2(C)Oc3c(C)c(OC(C)=O)c4c(c3C2=O)C(=O)C=C(NC(=O)/C(C)=C\C=C\C(C)C(O)C(C)C(O)C(C)C(OC(C)=O)C1C)C4=O` (configuration not stated), for which the pEC50 was less than 3.70 and the pIC50 was 5.23. For the compound `c1ccc(C(c2ccccc2)[P+](c2ccccc2)(c2ccccc2)c2ccccc2)cc1`, the pEC50 is less than 4.70 and the pIC50 was 6.43.

For `CC1=C(C(=O)NC(C)(C)C)CC(C(=O)NC(C)(C)C)C(C)N1` (configuration not stated), the pEC50 was less than 3.70 and the pIC50 is less than 3.70. As for `Cc1ccc(Nc2ccc3c4c(cc(=O)n3C)-c3ccccc3C(=O)c24)c(S(=O)(=O)O)c1`, the pEC50 was less than 3.76 and the pIC50 was less than 3.76. For `Cc1ncc([N+](=O)[O-])n1CCNS(=O)(=O)CCCn1ncnc1[N+](=O)[O-]`, the pEC50 is less than 3.70 and the negative-log IC50 (pIC50) is less than 3.70.

`CC(C)(C)[Si](C)(C)OC1CCOC1(O)c1ccccn1` (configuration not stated): the pEC50 was less than 3.70 and the pIC50 was 4.18.

As for `CSc1nc(NC2OC(COC(C)=O)C(OC(C)=O)C(OC(C)=O)C2OC(C)=O)c2c(n1)OCC2=O` (configuration not stated), the pEC50 was less than 4.17 and the pIC50 is less than 4.17. For `COC12OCC(OC1OCc1ccccc1)C1OC(C)(C)OC12` (configuration not stated), the pEC50 was less than 3.70 and the pIC50 is 3.98.

In the case of `Cc1cc2c(=O)cc(-c3ccc(C(F)(F)F)cc3)oc2c(C(=O)O)c1C`, the result was inactive.

Take `COc1ccc(C2SCC(=O)N2c2ccc(-c3ccc(-n4c(-c5ccccc5)nc5ccccc5c4=O)cc3)cc2)cc1OC` (configuration not stated): the pEC50 is less than 3.70 and the pIC50 was 4.74. Consider `CONc1ncnc2c1ncn2C1OC(CO)CC1F` (configuration not stated), for which the pEC50 was less than 3.75 and the negative-log IC50 (pIC50) is less than 3.75. On to `COc1ccccc1NC(=O)C(=O)Cc1cnc2ccccc2n1`, for which the pEC50 was less than 3.68 and the pIC50 was 3.86. Take `c1cc(-c2ccc(-c3ccc(-c4ccc(-c5cccc6nsnc56)[nH]4)c4nsnc34)[nH]2)c2nsnc2c1`: the pEC50 was less than 4.00 and the negative-log IC50 (pIC50) was less than 4.00. With `O=c1[nH][n+]([O-])cc2c(C(O)=C(O)O)c[nH]c12`, the outcome was inactive. On to `CCOC(=O)N1CCN(c2c(N)nc(C)[nH]c2=O)CC1`, for which the pEC50 was less than 3.70 and the pIC50 was less than 3.70. As to `COc1ccc2c(c1)CSC(c1ccccc1)C2=O` (configuration not stated), the pEC50 is less than 4.01 and the pIC50 was 4.26. With `O=c1[nH]c(=O)c2c([nH]1)[nH]c1ccc(Br)cc12`, the pEC50 is less than 3.70 and the pIC50 is 4.46. The matching figures for `N#CCCN(c1ccc(/C=C2\N=C(c3ccc(Cl)cc3)OC2=O)cc1)S(=O)(=O)c1ccccc1`: less than 4.14 and less than 4.14. With `Cc1n(-c2ccccc2)c2c([n+]1Cc1ccc([N+](=O)[O-])cc1)C(=O)c1ccccc1C2=O`, the pEC50 was less than 4.15 and the pIC50 was 5.44.

`CSc1nc2c(c(=O)n1C)N=C(c1ccc(Cl)cc1)CC(c1ccccc1)N2` (configuration not stated): the pEC50 was less than 3.70 and the pIC50 was 4.74. For the compound `CSc1nc(N)c(NC2OC(CO)C(O)C2O)c(=O)[nH]1` (configuration not stated), the pEC50 was 4.09 and < 3.70; the pIC50 is 3.96 and 3.95. Turning to `CC(Nc1cc(Cl)cc(Cl)c1)c1ccncc1` (configuration not stated), the pEC50 was less than 3.70 and the pIC50 was 4.80. Take `CCOC(=O)/C(O)=C(/C=N\C(=S)Nc1ccccc1Cl)C(=O)OCC`: the pEC50 is less than 3.70 and the pIC50 is less than 3.70. `O=C(O)c1cc2c3c(c1)[C@H]1C=CC[C@H]1CN3CC1CC=CC21` (some centres not stated): the outcome was inactive.

With `COC(=O)C1(COCc2ccccc2)CCCC2OC21` (configuration not stated), the outcome was inactive. For the compound `CN(C)C1=CC(=O)C(=O)c2ccncc21`, the result was inactive. `Cc1c(NC(=S)NC(=O)c2ccc([N+](=O)[O-])cc2)c(=O)n(-c2ccccc2)n1C`: the result was inactive. On to `CCOC(=O)NC(Nc1ncccn1)(C(F)(F)F)C(F)(F)F`, for which the negative logarithm of the EC50 (pEC50) is less than 3.72 and the pIC50 is 3.73.

In the case of `Cn1nc2ccc3nccc(NCCNCCO)c3c2n1`, the pEC50 was less than 3.06 and the negative logarithm of the IC50 (pIC50) was 5.41. For `CCCN=Cc1c(O)c(O)c(C(C)C)c2cc(C)c(-c3c(C)cc4c(C(C)C)c(O)c(O)c(C=NCCC)c4c3O)c(O)c12`, the pEC50 was less than 5.20 and the pIC50 is 5.94.

Consider `CC(=O)N=C1N(/C=C2\C(=O)Oc3ccccc3C2=O)C(=O)/C(=C/c2cccc(Cl)c2Cl)N1C`, for which the pEC50 was less than 3.70 and the pIC50 is 4.58. `C=CN1C(=O)OC(c2ccccc2)C1c1ccccc1` (configuration not stated): the pEC50 was less than 4.03; the pIC50 was < 4.10 and 4.52. With `C/C(=N\N=C(N)N)C(CN(CC(C)C)CC(C)C)C(=O)Nc1ccc(C)cc1C` (configuration not stated), the pEC50 was less than 4.75 and the pIC50 was less than 4.75. For the compound `CCOC(=O)/C(C#N)=C/c1coc2cc(C)cc(C)c2c1=O`, the pEC50 is less than 3.70 and the pIC50 is 4.96. Turning to `NNC(=O)/C(NC(=O)c1ccccc1)=C(\N)c1ccc(Cl)cc1`, the pEC50 was less than 3.55 and the pIC50 was 3.79. As to `OC(C#CCN1CCCC1)(c1ccccc1)c1ccccc1.[C-]#[O+].[C-]#[O+].[C-]#[O+].[C-]#[O+].[C-]#[O+].[C-]#[O+].[Co].[Co]`, the pEC50 was less than 3.70 and the pIC50 was 5.13.

As to `CC(=O)O[C@H]1CCC2[C@@H]3CC[C@]4(C)CC(=O)C=C[C@]4(C)C3CC[C@@]21C` (some centres not stated), the outcome was inactive. Turning to `C/C(=N\O)c1ccc(S(=O)(=O)c2ccc([N+](=O)[O-])cc2)cc1`, the pEC50 was less than 3.70 and the pIC50 was less than 3.70. Turning to `Nc1c2ccccc2nc2ccccc12`, the pEC50 is less than 3.70 and the negative logarithm of the IC50 (pIC50) is 5.66. Turning to `OCCN(CCO)CN(CO)c1nc(N(CO)CN(CCO)CCO)nc(N(CO)CN(CCO)CCO)n1`, the pEC50 was less than 3.36 and the pIC50 is less than 3.36. With `CC(C)NCC(O)c1ccc(OCc2ccccc2)c(OCc2ccccc2)c1-c1ccccc1` (configuration not stated), the pEC50 was less than 3.70 and the pIC50 is 5.51.

The pEC50 is the EC50 on a negative log10 scale, so that one unit is a factor of ten. Usually pIC50 stands for the IC50 on a negative log10 scale, so that one unit is a factor of ten.
